Measurements from patent US20210047324A1 (Aptinyx Inc., priority 2018, published 2021).

How the values were obtained:
[1] = target: T1, NMDAR2A (Homo sapiens, UniProt Q12879); assay: NMDAR agonist assay, [3H]MK-801 binding, NMDAR2A expressing HEK cell membranes; format: biochemical; design: key to NMDAR2A B: log EC50: 0=−; ≥1×10^−9 M (e.g., −8)=+; <1×10^−9 M (e.g., −10)=++; details: 50 μM glutamate
T1 construct: expressed in transfected cells; host or cells: HEK cells (membrane extract)
In short: (§1)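 Membranes from HEK cells (300 μg protein) preincubated 15 min with 50 μM glutamate plus compound (1×10^−15–1×10^−7 M) or 1 mM glycine, then with 0.3 μCi [3H]MK-801 for 15 min at 25° C. (nonequilibrium); filter-bound DPM, baseline-subtracted, expressed as % of 1 mM glycine; EC50 and % maximum from three-parameter fit.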

[2] = target: T2, NMDAR2B (Homo sapiens, UniProt Q13224); assay: NMDAR agonist assay, [3H]MK-801 binding, NMDAR2B expressing HEK cell membranes; format: biochemical; details: 50 μM glutamate; for EC50: read-out: NMDAR2B B: log EC50 (converted)
T2 construct: expressed in transfected cells; host or cells: HEK cells (membrane extract)
In short: as §1

[3] = target: T3, NMDAR2C (Homo sapiens, UniProt Q14957); assay: NMDAR agonist assay, [3H]MK-801 binding, NMDAR2C expressing HEK cell membranes; format: biochemical; details: 50 μM glutamate; for EC50: read-out: NMDAR2C B: log EC50 (converted)
T3 construct: expressed in transfected cells; host or cells: HEK cells (membrane extract)
Protocol: (§2) Assays were conducted as described by Moskal et al., “GLYX-13: a monoclonal antibody-derived peptide that acts as an N-methyl-D-aspartate receptor modulator,” Neuropharmacology, 49, 1077-87, 2005. These studies were designed to determine if the test compounds act to facilitate NMDAR activation in NMDAR2A, NMDAR2B, NMDAR2C or NMDAR2D expressing HEK cell membranes as measured by increases in [^3H]MK-801 binding.
(§3) In the assay, 300 μg of NMDAR expressing HEK cell membrane extract protein was preincubated for 15 minutes at […] in the presence of saturating concentrations of glutamate (50 μM) and varying concentrations of test compound (1×10^−15M-1×10^−7M), or 1 mM glycine. Following the addition of 0.3 μCi of [3H]MK-801 (22.5 Ci/mmol), reactions were again incubated for 15 minutes at 25° C. (nonequilibrium conditions). Bound and free [3H]MK-801 were separated via rapid filtration using a Brandel apparatus.
(§4) In analyzing the data, the DPM (disintegrations per minute) of [3H]MK-801 remaining on the filter were measured for each concentration of test compound or for 1 mM glycine. The DPM values for each concentration of a ligand (N=2) were averaged. The baseline value was determined from the best fit curve of the DPM values modeled using the GraphPad program and the log(agonist) vs. response (three parameters) algorithm was then subtracted from all points in the dataset. The % maximal [^3H]MK-801 binding was then calculated relative to that of 1 mM glycine: all baseline subtracted DPM values were divided by the average value for 1 mM glycine. The EC50 and % maximal activity were then obtained from the best fit curve of the % maximal [3H]MK-801 binding data modelled using the GraphPad program and the log(agonist) vs. response (three parameters) algorithm.
(§5) The tables below summarize the results for the wild type […] NMDAR2A, NMDAR2B, NMDAR2C, and NMDAR2D, and whether the compound is not an agonist (−), is an agonist (+), or is a strong agonist (++), where column A is based on the % maximal [3H]MK-801 binding relative to 1 mM glycine (−=0; <100%=+; and >100%=++); and column B is based on log EC50 values (0=−; ≥1×10^−9 M (e.g., −8)=+; and <1×10^−9 M (e.g., −10)=++).

[4] = target: T4, NMDAR2D (Homo sapiens, UniProt O15399); assay: NMDAR agonist assay, [3H]MK-801 binding, NMDAR2D expressing HEK cell membranes; format: biochemical; details: 50 μM glutamate; relative to 1 mM glycine
T4 construct: expressed in transfected cells; host or cells: HEK cells (membrane extract)
Protocol: as §2, §3, §4, §5

[5] = target: T5, NMDAR2D (Homo sapiens, UniProt O15399+Q05586); assay: as above; format: biochemical; details: 50 μM glutamate; read-out: NMDAR2D B: log EC50 (converted)
T5 construct: expressed in transfected cells; host or cells: HEK cells (membrane extract)
Protocol: as §2, §3, §4, §5

[6] = IV pharmacokinetics in Sprague Dawley rats; format: in vivo; details: Sprague-Dawley, rat, in vivo, iv, 2 mg/kg, normal saline; for Cmax: read-out: Cmax; for Vd: read-out: Vss
Protocol: Sprague Dawley rats were dosed intravenously using a normal saline formulation containing 2 mg/kg of the compounds identified in the below table. The table below summarizes the results of the IV pharmacokinetics.

[7] = Oral pharmacokinetics in Sprague Dawley rats (plasma, brain, CSF); format: in vivo; details: rat, 10 mg/kg; for Tmax / AUC(0-t) / bioavailability / Cmax: Sprague-Dawley, po, plasma; for Tmax / AUC(0-t) / Cmax / CSF Cmax / Brain Cmax: per os; for Tmax: read-out: Tmax; for bioavailability: per os 10 mg/kg; for Cmax: read-out: Cmax
Protocol: In another experiment, Sprague Dawley rats were dosed per os (oral gavage) using a normal saline formulation containing 10 mg/kg of the compounds identified in the table below. Plasma, brain, and CSF samples were analyzed at various time points over a 24 hour period. The table below summarizes the results of the oral pharmacokinetics, where the first three values (Tmax, Cmax and AUClast) are plasma values.

[8] = system: Sprague Dawley rats; assay: Porsolt forced swim test; format: in vivo; details: 0.1 mg/kg
[9] = Microsomal stability (Human); format: in vitro ADME; details: after 60 minutes
Protocol: (§6) Microsomal stability of disclosed compounds was investigated. The following table indicates the percent of compound remaining after 60 minutes.

[10] = Microsomal stability (Rat); format: in vitro ADME; details: after 60 minutes
Protocol: as §6

[11] = Plasma stability (Human); format: in vitro ADME; details: after 60 minutes
Protocol: (§7) Plasma stability of disclosed compounds was investigated. The following table indicates the percent of compound remaining after 60 minutes.

[12] = Plasma stability (Rat); format: in vitro ADME; details: after 60 minutes
Protocol: as §7

T2 sequence (Q13224 27-1484, species assumed, other chains not shown): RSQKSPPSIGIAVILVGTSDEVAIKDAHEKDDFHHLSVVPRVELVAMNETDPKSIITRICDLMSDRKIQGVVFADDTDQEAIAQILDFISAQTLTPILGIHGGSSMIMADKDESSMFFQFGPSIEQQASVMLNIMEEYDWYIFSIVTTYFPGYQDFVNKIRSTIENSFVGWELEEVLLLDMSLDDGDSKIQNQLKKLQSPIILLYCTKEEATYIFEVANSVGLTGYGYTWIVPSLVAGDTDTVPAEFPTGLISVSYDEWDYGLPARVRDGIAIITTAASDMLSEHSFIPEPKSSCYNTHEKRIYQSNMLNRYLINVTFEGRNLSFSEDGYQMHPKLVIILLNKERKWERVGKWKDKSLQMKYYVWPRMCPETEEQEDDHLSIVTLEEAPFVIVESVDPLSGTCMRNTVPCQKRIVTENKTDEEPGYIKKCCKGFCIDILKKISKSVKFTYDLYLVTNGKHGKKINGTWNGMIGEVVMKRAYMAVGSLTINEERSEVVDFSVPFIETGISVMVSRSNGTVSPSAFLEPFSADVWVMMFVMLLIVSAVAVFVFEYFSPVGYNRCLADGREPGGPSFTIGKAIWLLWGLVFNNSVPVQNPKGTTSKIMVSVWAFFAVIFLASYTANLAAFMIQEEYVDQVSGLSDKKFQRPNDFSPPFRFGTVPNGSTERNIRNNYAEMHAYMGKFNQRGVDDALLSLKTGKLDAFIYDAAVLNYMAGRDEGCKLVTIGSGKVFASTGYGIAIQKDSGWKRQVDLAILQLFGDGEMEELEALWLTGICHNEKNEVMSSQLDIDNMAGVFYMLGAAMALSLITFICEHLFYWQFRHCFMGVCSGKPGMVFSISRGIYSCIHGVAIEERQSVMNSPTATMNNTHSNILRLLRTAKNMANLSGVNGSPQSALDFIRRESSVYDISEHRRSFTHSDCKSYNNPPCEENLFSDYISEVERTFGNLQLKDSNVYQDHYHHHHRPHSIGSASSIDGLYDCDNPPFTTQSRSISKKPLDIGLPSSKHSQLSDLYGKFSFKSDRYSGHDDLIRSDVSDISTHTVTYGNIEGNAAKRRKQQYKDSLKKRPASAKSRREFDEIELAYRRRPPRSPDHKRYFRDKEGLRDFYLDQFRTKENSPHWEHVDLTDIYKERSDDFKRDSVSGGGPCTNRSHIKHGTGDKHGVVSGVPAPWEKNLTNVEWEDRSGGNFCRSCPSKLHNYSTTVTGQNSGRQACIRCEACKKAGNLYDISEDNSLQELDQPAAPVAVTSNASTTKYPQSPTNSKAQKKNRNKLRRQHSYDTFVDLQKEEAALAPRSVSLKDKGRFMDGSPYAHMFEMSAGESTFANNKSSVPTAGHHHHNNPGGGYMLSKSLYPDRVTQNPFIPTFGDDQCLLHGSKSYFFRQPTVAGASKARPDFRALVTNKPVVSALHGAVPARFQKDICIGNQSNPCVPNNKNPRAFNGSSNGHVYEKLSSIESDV
T3 sequence (Q14957 20-1233, species assumed, other chains not shown): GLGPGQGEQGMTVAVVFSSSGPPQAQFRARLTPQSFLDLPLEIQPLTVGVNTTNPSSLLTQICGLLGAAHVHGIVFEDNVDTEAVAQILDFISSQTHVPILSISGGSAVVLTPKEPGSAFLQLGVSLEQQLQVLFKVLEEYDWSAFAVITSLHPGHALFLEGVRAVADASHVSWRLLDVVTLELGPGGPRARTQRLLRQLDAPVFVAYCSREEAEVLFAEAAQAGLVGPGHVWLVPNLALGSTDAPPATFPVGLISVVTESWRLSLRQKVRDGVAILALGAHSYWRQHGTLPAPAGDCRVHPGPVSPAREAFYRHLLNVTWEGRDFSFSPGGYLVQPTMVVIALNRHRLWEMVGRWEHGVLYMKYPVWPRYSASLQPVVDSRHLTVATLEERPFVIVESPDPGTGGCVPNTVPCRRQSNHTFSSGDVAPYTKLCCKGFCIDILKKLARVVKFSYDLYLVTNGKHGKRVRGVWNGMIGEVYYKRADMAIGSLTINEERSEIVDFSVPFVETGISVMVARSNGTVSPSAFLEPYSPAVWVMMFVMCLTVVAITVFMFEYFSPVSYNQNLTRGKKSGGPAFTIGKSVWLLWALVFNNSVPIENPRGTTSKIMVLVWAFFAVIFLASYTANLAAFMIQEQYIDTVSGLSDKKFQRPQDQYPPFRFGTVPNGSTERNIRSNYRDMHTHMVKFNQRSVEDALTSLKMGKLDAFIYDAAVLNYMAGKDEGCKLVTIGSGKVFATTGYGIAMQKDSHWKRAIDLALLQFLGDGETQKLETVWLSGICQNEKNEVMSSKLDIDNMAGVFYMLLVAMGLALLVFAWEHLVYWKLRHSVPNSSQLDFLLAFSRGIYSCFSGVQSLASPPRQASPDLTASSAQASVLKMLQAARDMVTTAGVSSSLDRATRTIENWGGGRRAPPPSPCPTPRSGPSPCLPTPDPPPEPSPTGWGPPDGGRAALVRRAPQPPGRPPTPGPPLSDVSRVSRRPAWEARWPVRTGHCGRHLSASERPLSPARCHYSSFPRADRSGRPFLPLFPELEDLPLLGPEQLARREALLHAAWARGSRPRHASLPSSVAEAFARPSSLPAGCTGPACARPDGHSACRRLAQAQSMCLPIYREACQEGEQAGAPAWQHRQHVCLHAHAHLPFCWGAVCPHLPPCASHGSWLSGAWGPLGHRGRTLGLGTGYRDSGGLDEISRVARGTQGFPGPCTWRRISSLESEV
T1 sequence (Q12879 23-1464, species assumed, other chains not shown): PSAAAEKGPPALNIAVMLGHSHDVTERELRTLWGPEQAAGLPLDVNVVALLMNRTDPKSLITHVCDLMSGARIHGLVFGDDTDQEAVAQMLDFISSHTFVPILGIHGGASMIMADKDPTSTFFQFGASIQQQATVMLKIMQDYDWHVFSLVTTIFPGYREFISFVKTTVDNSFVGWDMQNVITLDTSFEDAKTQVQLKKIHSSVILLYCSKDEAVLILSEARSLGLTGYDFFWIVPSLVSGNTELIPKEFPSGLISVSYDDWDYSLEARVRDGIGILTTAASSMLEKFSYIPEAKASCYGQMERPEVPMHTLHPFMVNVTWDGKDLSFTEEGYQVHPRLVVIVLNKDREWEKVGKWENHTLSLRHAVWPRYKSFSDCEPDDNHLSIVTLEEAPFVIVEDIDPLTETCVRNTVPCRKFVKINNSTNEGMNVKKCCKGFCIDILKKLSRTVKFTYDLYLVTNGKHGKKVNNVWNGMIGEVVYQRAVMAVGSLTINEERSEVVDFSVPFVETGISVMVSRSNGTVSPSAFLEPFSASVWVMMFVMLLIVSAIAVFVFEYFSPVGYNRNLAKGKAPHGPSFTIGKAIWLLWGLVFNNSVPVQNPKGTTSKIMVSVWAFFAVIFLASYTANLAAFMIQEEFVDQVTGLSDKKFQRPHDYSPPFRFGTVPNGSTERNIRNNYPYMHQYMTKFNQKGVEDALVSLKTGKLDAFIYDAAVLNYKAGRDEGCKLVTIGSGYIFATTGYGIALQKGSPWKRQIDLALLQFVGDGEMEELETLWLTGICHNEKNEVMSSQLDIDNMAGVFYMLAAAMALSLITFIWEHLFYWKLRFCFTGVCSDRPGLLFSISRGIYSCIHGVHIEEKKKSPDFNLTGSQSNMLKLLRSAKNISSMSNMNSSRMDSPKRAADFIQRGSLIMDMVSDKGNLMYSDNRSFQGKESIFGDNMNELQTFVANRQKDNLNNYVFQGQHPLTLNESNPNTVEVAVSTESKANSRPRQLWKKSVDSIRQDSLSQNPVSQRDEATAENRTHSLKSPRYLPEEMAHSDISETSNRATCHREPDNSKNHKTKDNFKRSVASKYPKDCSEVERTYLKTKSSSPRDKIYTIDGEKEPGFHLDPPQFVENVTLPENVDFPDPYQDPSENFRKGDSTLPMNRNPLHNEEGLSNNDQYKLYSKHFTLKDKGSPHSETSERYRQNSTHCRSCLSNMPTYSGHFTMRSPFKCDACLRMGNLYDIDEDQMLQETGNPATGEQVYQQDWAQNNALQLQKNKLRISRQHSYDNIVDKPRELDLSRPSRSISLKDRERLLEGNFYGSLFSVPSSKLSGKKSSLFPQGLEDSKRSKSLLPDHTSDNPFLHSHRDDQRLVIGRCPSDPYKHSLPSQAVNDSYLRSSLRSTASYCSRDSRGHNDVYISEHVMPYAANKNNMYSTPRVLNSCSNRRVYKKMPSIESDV

## O=C1NCCCC12CCCN2 (stereo not shown) [EU-2, 1,7-diazaspiro[4.5]decan-6-one]
[1]
  NMDAR2A B: log EC50: −
[2]
  EC50: < 1 nM
[3]
  EC50: < 1 nM
  NMDAR2C A: % maximal [3H]MK-801 binding relative to 1 mM glycine: + (<100%=+)
[4]
  NMDAR2D A: % maximal [3H]MK-801 binding relative to 1 mM glycine: ++ (>100%=++)
[5]
  EC50: < 1 nM
[6]
  AUC(0-t): 4000 ng·h/mL
  clearance: 8.79 mL/min/kg
  half-life: 96.6 min
  Cmax: 2140 ng/mL
  Vd: 0.94 L/kg
[7]
  Tmax: 60 min
  AUC(0-t): 4430 ng·h/mL
  bioavailability: 100%
  Cmax: 1860 ng/mL
  CSF Cmax: 436.7 ng/mL
  Brain Cmax: 593.1 ng/mL
[8]; 1 wk post-dose
  % reduction in float time: 46%
  Significance vs. vehicle: Yes
[8]; 1 h post-dose
  % reduction in float time: 55%
  Significance vs. vehicle: Yes
[9]
  Microsomal (Human): percent of compound remaining: 100%
[10]
  Microsomal (Rat): percent of compound remaining: 94%
[11]
  Plasma (Human): percent of compound remaining: 74%
[12]
  Plasma (Rat): percent of compound remaining: 95%

## CC(C)(C)OC(=O)N1CCCC12CCCNC2=O (single isomer, unassigned) [EV-1, tert-butyl 6-oxo-1,7-diazaspiro[4.5]decane-1-carboxylate]
[1]; read-out: NMDAR2A B: log EC50 (converted)
  EC50: < 1 nM
[1]; 0.25 h, relative to 1 mM glycine, read-out: NMDAR2A A: % maximal [3H]MK-801 binding relative to 1 mM glycine
  Emax: < 100%
[2]
  EC50: < 1 nM
[2]; relative to 1 mM glycine, read-out: NMDAR2B A: % maximal [3H]MK-801 binding relative to 1 mM glycine
  Emax: < 100%
[3]
  EC50: < 1 nM
  NMDAR2C A: % maximal [3H]MK-801 binding relative to 1 mM glycine: + (<100%=+)
[4]
  NMDAR2D A: % maximal [3H]MK-801 binding relative to 1 mM glycine: + (<100%=+)
[5]
  EC50: < 1 nM
[6]
  AUC(0-t): 1270 ng·h/mL
  clearance: 26.2 mL/min/kg
  half-life: 25.2 min
  Cmax: 2730 ng/mL
  Vd: 0.72 L/kg
[7]
  Tmax: 15 min
  AUC(0-t): 2850 ng·h/mL
  bioavailability: 45%
  Cmax: 3690 ng/mL
  CSF Cmax: 1414.8 ng/mL
  Brain Cmax: 1457.4 ng/mL
[8]; 1 h post-dose
  % reduction in float time: 53%
  Significance vs. vehicle: Yes
[8]; 24 h post-dose
  % reduction in float time: 45%
  Significance vs. vehicle: Yes
[9]
  Microsomal (Human): percent of compound remaining: 95%
[10]
  Microsomal (Rat): percent of compound remaining: 100%
[11]
  Plasma (Human): percent of compound remaining: 98%
[12]
  Plasma (Rat): percent of compound remaining: 94%
